{"source": "patent US7482008B1", "about": "“Human T cell reactive feline protein (TRFP) isolated from house dust and uses therefor” (Merck Patent GmbH, priority 1989, dated 2009)", "tested_on": "B6CBAF1 mice", "test": "Tolerization s.c. then challenge with recombinant chain 1 of TRFP, chain 1 specific IL-2 production", "type": "in vivo, mouse", "conditions": "150 μg/dose s.c. days 0 and 5; challenge 100 μg recombinant chain 1 in CFA", "description": "The mice were injected with 150 μg/dose of either the TRFP chain 1 or each of the peptides (days 0 and 5). The PBS alone and the PBS/peptides were injected in 300 μl/dose. The PBS/chain 1 of the TRFP protein was injected in 100 μl/dose. All tolerizing doses were at a single site under the dorsal skin between the forelimbs. On day 10 all of the animals received a challenge injection of 100 μg recombinant chain 1 of TRFP in 200 μl CFA as described above. On day 20 the animals were sacrificed and draining lymph nodes were removed as described above. The lymph node cells were suspended, rinsed, and cultured as above with or without 150 μg/ml recombinant chain 1 of TRFP. The lymph node cell cultures in this experiment were each 0.1 ml. The supernatants from the cultures were assayed for IL-2 as described above."}
{"substance": "recombinant chain 1: recombinant TRFP chain 1 expressed in E. coli", "values": [{"measurement": "IL-2 production specific for chain 1 of TRFP", "value": "effective in decreasing IL-2 production"}]}
